# Source: patent US7563592B2, “Alizarin-based chromogenic substrates, their uses and composition containing same” (Biomerieux, S.A., priority 1999, dated 2009)
# How the values were obtained:
# [1] = test system: Klebsiella pneumoniae 023; assay: β-galactosidase detection in semi-solid Columbia medium (Example 1); assay type: cell-based
# [2] = test system: Enterococcus faecalis 117; assay: as above; assay type: cell-based
# [3] = test system: Acinetobacter spp.; assay: β-galactosidase detection on semi-solid medium, clinical and environmental strains (Example 2); assay type: cell-based; details: 50 mg/l + iron citrate 500 mg/l; 18 hours; 53 strains tested
# [4] = test system: Enterobacter agglomerans; assay: as above; assay type: cell-based; details: 50 mg/l + iron citrate 500 mg/l; 18 hours; 1 strain tested
# [5] = test system: Klebsiella oxytoca; assay: as above; assay type: cell-based; details: 50 mg/l + iron citrate 500 mg/l; 18 hours; 13 strains tested
# [6] = test system: Klebsiella ozaenae; assay: as above; assay type: cell-based; details: 50 mg/l + iron citrate 500 mg/l; 18 hours; 3 strains tested
# [7] = test system: Klebsiella pneumoniae; assay: as above; assay type: cell-based; details: 50 mg/l + iron citrate 500 mg/l; 18 hours; 19 strains tested
# [8] = test system: Proteus penneri; assay: as above; assay type: cell-based; details: 50 mg/l + iron citrate 500 mg/l; 18 hours; 1 strain tested
# [9] = test system: Providencia alcalifaciens; assay: as above; assay type: cell-based; details: 50 mg/l + iron citrate 500 mg/l; 18 hours; 3 strains tested
# [10] = test system: Providencia stuartii; assay: as above; assay type: cell-based; details: 50 mg/l + iron citrate 500 mg/l; 18 hours; 10 strains tested
# [11] = test system: Vibrio cholerae; assay type: cell-based; details: 50 mg/l + iron citrate 500 mg/l; 18 hours; 1 strain tested
# [12] = test system: Yersinia enterocolitica; assay: β-galactosidase detection on semi-solid medium, clinical and environmental strains (Example 2); assay type: cell-based; details: 50 mg/l + iron citrate 500 mg/l; 18 hours; 14 strains tested
# [13] = test system: 367 different strains collected from clinical and environmental specimens; assay: β-galactosidase detection on semi-solid medium, all strains together (Example 2); assay type: cell-based; details: 18 hours at 37° C.
# [14] = test system: Listeria ivanovii 032; assay: Effect of metal salts on the color of the marker part, substrate 50 mg/l in Columbia medium (Example 3); assay type: cell-based
# Experimental: To the Columbia-base medium (46.37 g/l) supplemented with Alizarin-2-β-D-glucoside (50 mg/l), were added either Manganese chloride, Ammoniacal iron citrate, Tin chloride, or Aluminum sulfate, all at a concentration of 50 mg/l. A control medium with no metal salts was tested in parallel. After autoclaving, these various media were all used to prepare Petri dishes (20 ml per plate). […] It should be pointed out that intensity readings are in arbitrary units. The only purpose of giving these values is to make it possible to compare one strain with another in this respect. The same is true for the examples which follow. Similarly, the strains tested were taken from the Applicant's collection and the number given represents an internal reference specific to this collection. The same internal numbering system is also used in some of the examples given later on.
# [15] = test system: Enterococcus faecalis 117; assay: Comparison of glucoside substrates in semi-solid Columbia medium (Example 7); assay type: cell-based; details: 0.05 g/l + iron citrate 0.05 g/l
# [16] = test system: eight (8) species tested; assay: β-glucosidase detection in API strip wells, all species together (Example 6); assay type: cell-based; details: of the eight (8) species tested; 0.12 g/l + iron citrate 0.05 g/l
# [17] = test system: Listeria monocytogenes 022; assay: β-glucosidase detection in API strip wells (Example 6); details: 0.12 g/l + iron citrate 0.05 g/l
# [18] = test system: Listeria innocua 036; assay: as above; details: 0.12 g/l + iron citrate 0.05 g/l
# [19] = test system: Bacillus thuringiensis 072; assay: as above; details: 0.12 g/l + iron citrate 0.05 g/l; 24 H
# [20] = Manganese chloride 50 mg/l, 24 H
# [21] = Manganese chloride 50 mg/l, 48 H
structure (smiles),measurement,setting,value
O=C1c2ccccc2C(=O)c2c1ccc(O[C@@H]1O[C@H](CO)[C@H](O)[C@H](O)[C@H]1O)c2O [Alizarin-2-β-D-galactoside],Color,"[1]; 0.03 g/l + iron citrate, 18 H",purple
same,Intensity,"[1]; 0.03 g/l + iron citrate, 18 H",0.3
same,Color,"[1]; 0.03 g/l + iron citrate, 24 H",purple
same,Intensity,"[1]; 0.03 g/l + iron citrate, 24 H",0.3
same,Color,"[1]; 0.03 g/l + iron citrate, 48 H",purple
same,Intensity,"[1]; 0.03 g/l + iron citrate, 48 H",0.5
same,Color,"[1]; 0.05 g/l + iron citrate, 18 H",purple
same,Intensity,"[1]; 0.05 g/l + iron citrate, 18 H",0.8
same,Color,"[1]; 0.05 g/l + iron citrate, 24 H",purple
same,Intensity,"[1]; 0.05 g/l + iron citrate, 24 H",1
same,Color,"[1]; 0.05 g/l + iron citrate, 48 H",purple
same,Intensity,"[1]; 0.05 g/l + iron citrate, 48 H",1
same,Color,"[1]; 0.08 g/l + iron citrate, 18 H",purple
same,Intensity,"[1]; 0.08 g/l + iron citrate, 18 H",1.5
same,Color,"[1]; 0.08 g/l + iron citrate, 24 H",purple
same,Intensity,"[1]; 0.08 g/l + iron citrate, 24 H",1.5
same,Color,"[1]; 0.08 g/l + iron citrate, 48 H",purple
same,Intensity,"[1]; 0.08 g/l + iron citrate, 48 H",1.7
same,Color,"[2]; 0.01 g/l + iron citrate, 18 H",purple
same,Intensity,"[2]; 0.01 g/l + iron citrate, 18 H",0.3
same,Color,"[2]; 0.01 g/l + iron citrate, 24 H",purple
same,Intensity,"[2]; 0.01 g/l + iron citrate, 24 H",0.6
same,Color,"[2]; 0.01 g/l + iron citrate, 48 H",purple
same,Intensity,"[2]; 0.01 g/l + iron citrate, 48 H",0.6
same,Color,"[2]; 0.03 g/l + iron citrate, 18 H",purple
same,Intensity,"[2]; 0.03 g/l + iron citrate, 18 H",2.7
same,Color,"[2]; 0.03 g/l + iron citrate, 24 H",purple
same,Intensity,"[2]; 0.03 g/l + iron citrate, 24 H",3
same,Color,"[2]; 0.03 g/l + iron citrate, 48 H",purple
same,Intensity,"[2]; 0.03 g/l + iron citrate, 48 H",3.5
same,Color,"[2]; 0.05 g/l + iron citrate, 18 H",purple
same,Intensity,"[2]; 0.05 g/l + iron citrate, 18 H",4
same,Color,"[2]; 0.05 g/l + iron citrate, 24 H",purple
same,Intensity,"[2]; 0.05 g/l + iron citrate, 24 H",4
same,Color,"[2]; 0.05 g/l + iron citrate, 48 H",purple
same,Intensity,"[2]; 0.05 g/l + iron citrate, 48 H",4
same,Color,"[2]; 0.08 g/l + iron citrate, 18 H",purple
same,Intensity,"[2]; 0.08 g/l + iron citrate, 18 H",4
same,Color,"[2]; 0.08 g/l + iron citrate, 24 H",purple
same,Intensity,"[2]; 0.08 g/l + iron citrate, 24 H",4
same,Color,"[2]; 0.08 g/l + iron citrate, 48 H",purple
same,Intensity,"[2]; 0.08 g/l + iron citrate, 48 H",4
same,percentage of positive strains,[3],0%
same,percentage of positive strains,[4],100%
same,percentage of positive strains,[5],100%
same,percentage of positive strains,[6],100%
same,percentage of positive strains,[7],100%
same,percentage of positive strains,[8],0%
same,percentage of positive strains,[9],0%
same,percentage of positive strains,[10],0%
same,percentage of positive strains,[11],100%
same,percentage of positive strains,[12],64%
same,color of colonies expressing β-galactosidase activity,[13]; 50 mg/l + iron citrate 500 mg/l,purple
same,strains that selectively hydrolyzed this substrate (not the reference substrate),[13]; of 367 strains,Eight
O=C1c2ccccc2C(=O)c2c1ccc(O[C@@H]1O[C@H](CO)[C@@H](O)[C@H](O)[C@H]1O)c2O [Alizarin-2-β-D-glucoside],Color,"[14]; Aluminum sulfate 50 mg/l, 24 H",red
same,Intensity,"[14]; Aluminum sulfate 50 mg/l, 24 H",4 arbitrary units
same,Color,"[14]; Aluminum sulfate 50 mg/l, 48 H",red
same,Intensity,"[14]; Aluminum sulfate 50 mg/l, 48 H",4 arbitrary units
same,Color,"[14]; Control, no metal salt, 24 H",purple
same,Intensity,"[14]; Control, no metal salt, 24 H",2.3 arbitrary units
same,Color,"[14]; Control, no metal salt, 48 H",purple
same,Intensity,"[14]; Control, no metal salt, 48 H",2.3 arbitrary units
same,Color,"[14]; Iron citrate 50 mg/l, 24 H",purple
same,Intensity,"[14]; Iron citrate 50 mg/l, 24 H",4 arbitrary units
same,Color,"[14]; Iron citrate 50 mg/l, 48 H",purple
same,Intensity,"[14]; Iron citrate 50 mg/l, 48 H",4 arbitrary units
same,Color,[14]; [20],purple
same,Intensity,[14]; [20],2.3 arbitrary units
same,Color,[14]; [21],purple
same,Intensity,[14]; [21],2.3 arbitrary units
same,Color,"[14]; Tin chloride 50 mg/l, 24 H",orange
same,Intensity,"[14]; Tin chloride 50 mg/l, 24 H",3 arbitrary units
same,Color,"[14]; Tin chloride 50 mg/l, 48 H",orange
same,Intensity,"[14]; Tin chloride 50 mg/l, 48 H",4 arbitrary units
same,Color,[15]; 18 H,Purple
same,Intensity,[15]; 18 H,3.5 arbitrary units
same,Color,[15]; 24 H,Purple
same,Intensity,[15]; 24 H,4 arbitrary units
same,Color,[15]; 48 H,Purple
same,Intensity,[15]; 48 H,4 arbitrary units
same,species in which activity was detected,[16],7 species
same,Color observed,[17]; 4 H,Purple
same,Color observed,[17]; 24 H,Purple
same,Color observed,[18]; 4 H,Purple
same,Color observed,[18]; 24 H,Purple
same,Color observed,[19],Purple
